From patent US11168073B2, “3,3-difluoroallylamines or salts thereof and pharmaceutical compositions comprising the same” (YUHAN CORPORATION, priority 2018, dated 2021)
Where a name gives a salt, the structure may show the parent alone.

Assays:
Format in all cases: biochemical
[1] = biological target: T1, recombinant human MAO-A (monoamine oxidase-A) (Homo sapiens, UniProt P21397); experiment: Activity evaluation on recombinant human MAO-A (Amplex Red/HRP-coupled assay, 0.5 mM tyramine substrate); details: 0.5 mM tyramine substrate, read-out: Inhibitory Activity (IC50, nM) MAO-A
T1 construct: purchased Sigma-Aldrich
T1 sequence (P21397 1-527): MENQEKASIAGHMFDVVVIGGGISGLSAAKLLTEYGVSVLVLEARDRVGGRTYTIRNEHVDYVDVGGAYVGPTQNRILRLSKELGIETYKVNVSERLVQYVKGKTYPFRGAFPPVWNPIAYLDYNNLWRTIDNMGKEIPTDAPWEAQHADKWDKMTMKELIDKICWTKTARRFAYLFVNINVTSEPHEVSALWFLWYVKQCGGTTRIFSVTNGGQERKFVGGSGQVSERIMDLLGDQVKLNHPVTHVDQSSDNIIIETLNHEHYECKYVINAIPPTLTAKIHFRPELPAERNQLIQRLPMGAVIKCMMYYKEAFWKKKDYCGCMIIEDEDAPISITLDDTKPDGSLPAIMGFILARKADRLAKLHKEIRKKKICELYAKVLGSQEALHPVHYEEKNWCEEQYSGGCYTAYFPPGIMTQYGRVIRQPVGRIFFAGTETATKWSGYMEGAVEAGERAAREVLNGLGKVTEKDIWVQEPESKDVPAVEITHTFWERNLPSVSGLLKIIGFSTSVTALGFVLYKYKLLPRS
Method in brief: (§1)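 Enzyme activity was measured as fluorescence rate (ex 544, em 590 nm) from resorufin formed by HRP-coupled H2O2 oxidation of 200 uM Amplex Red. Compounds were first incubated 30 min at 37 °C with enzyme at pH 7.4; substrates were 0.5 mM tyramine (MAO-A), 1 mM benzylamine (MAO-B) and 1 mM putrescine (DAO).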

[2] = biological target: T2, recombinant human VAP-1 (Homo sapiens, UniProt Q16853); experiment: Activity evaluation on recombinant human VAP-1 (Amplex Red/HRP-coupled hydrogen peroxide assay, benzylamine substrate); details: recombinant human VAP-1, benzylamine substrate; read-out: Inhibitory Activity (IC50, nM) human VAP-1
T2 construct: purchased R&D systems
T2 sequence (Q16853 1-763): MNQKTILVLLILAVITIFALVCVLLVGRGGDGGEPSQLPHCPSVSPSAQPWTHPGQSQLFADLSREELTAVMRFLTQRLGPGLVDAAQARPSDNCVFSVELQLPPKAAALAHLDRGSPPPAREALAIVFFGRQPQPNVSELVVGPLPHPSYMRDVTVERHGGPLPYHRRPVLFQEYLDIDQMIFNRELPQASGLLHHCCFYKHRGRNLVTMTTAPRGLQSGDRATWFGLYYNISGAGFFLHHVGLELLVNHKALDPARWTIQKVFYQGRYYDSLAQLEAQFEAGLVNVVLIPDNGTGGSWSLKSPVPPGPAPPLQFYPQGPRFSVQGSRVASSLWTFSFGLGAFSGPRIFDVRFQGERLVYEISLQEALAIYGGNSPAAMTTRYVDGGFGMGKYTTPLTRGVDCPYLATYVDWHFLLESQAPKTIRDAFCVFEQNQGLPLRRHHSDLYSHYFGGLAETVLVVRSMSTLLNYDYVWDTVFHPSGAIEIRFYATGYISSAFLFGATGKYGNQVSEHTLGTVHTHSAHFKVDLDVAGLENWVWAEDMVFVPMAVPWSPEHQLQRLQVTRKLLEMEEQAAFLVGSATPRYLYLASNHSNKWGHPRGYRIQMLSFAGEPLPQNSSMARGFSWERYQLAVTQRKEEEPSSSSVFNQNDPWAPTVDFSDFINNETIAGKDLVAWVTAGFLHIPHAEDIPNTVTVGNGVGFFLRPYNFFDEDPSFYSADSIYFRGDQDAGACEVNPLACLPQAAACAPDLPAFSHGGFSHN
Method in brief: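 Recombinant human VAP-1 in 50 mM sodium phosphate pH 7.4 preincubated 30 min at 37 °C with compound (8-point 1:3 series, <1% DMSO), then 1 mM benzylamine, 200 uM Amplex Red, 1 U/mL HRP added. H2O2-derived resorufin fluorescence (ex 544/em 590) followed 1–2 h; IC50 from four-parameter fit of rate inhibition.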

[3] = biological target: T3, recombinant human MAO-B (monoamine oxidase-B) (Homo sapiens, UniProt P27338); experiment: Activity evaluation on recombinant human MAO-B (Amplex Red/HRP-coupled assay, 1 mM benzylamine substrate); details: 1 mM benzylamine substrate, read-out: Inhibitory Activity (IC50, nM) MAO-B
T3 construct: purchased Sigma-Aldrich
T3 sequence (P27338 1-520): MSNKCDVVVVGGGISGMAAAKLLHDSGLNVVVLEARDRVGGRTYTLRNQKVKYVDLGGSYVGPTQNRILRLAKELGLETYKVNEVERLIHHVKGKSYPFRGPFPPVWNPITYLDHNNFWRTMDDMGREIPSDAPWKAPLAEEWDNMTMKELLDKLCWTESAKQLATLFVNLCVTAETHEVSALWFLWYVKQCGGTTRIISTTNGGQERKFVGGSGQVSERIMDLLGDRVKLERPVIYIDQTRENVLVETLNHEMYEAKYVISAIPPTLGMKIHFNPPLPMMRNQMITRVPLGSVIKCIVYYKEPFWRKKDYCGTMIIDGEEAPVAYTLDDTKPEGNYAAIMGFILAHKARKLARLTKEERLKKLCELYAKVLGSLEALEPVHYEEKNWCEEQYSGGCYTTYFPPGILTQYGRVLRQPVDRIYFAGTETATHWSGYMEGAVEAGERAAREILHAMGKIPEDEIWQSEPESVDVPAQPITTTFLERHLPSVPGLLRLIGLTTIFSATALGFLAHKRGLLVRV
Method in brief: as §1

[4] = biological target: T4, recombinant human DAO (diamine oxidase) (Homo sapiens, UniProt P19801); experiment: Activity evaluation on recombinant human DAO (Amplex Red/HRP-coupled assay, 1 mM putrescine substrate); details: 1 mM putrescine substrate, read-out: Inhibitory Activity (IC50, nM) DAO
T4 construct: purchased R&D systems
T4 sequence (P19801 20-751): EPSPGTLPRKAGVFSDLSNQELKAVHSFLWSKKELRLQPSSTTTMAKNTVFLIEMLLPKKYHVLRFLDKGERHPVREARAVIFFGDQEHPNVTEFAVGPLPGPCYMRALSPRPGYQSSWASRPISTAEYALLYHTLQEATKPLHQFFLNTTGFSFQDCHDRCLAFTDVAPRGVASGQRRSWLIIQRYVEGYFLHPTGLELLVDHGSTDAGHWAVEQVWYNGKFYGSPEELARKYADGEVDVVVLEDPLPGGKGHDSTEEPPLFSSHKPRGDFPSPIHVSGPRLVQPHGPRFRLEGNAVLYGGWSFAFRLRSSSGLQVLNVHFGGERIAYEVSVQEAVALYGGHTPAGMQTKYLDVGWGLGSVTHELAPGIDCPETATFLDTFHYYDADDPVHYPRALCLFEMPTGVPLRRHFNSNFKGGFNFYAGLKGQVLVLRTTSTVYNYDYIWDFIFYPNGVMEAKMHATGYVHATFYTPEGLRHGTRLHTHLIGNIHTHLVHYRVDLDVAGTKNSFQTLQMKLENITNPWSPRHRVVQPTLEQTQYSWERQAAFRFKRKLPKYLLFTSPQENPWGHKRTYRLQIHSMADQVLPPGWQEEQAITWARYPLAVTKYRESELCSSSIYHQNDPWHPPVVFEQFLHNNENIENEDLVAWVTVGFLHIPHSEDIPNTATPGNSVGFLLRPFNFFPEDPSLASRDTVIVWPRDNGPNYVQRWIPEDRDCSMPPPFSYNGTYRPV
Method in brief: as §1

Row | Structure (SMILES) | IC50 [1] | IC50 [2] | IC50 [3] | IC50 [4]
1 | Cc1cc(-c2ccc(N3CCCC3=O)cc2)cnc1-n1cnn(CC(CN)=C(F)F)c1=O [Example 230, 2-[2-(aminomethyl)-3,3-difluoro-allyl]-4-[3-methyl-5-[4-(2-oxopyrrolidin-1-yl)phenyl]-2-pyridyl]-1,2,4-triazol-3-one Trifluoroacetate] | > 100000 nM | 0.7 nM | 77000 nM | 24000 nM
2 | Cc1cc(-c2ccc3cn[nH]c3c2)cnc1-n1cnn(CC(CN)=C(F)F)c1=O [Example 233, 2-[2-(aminomethyl)-3,3-difluoro-allyl]-4-[5-(1H-indazol-6-yl)-3-methyl-2-pyridyl]-1,2,4-triazol-3-one Trifluoroacetate] | > 100000 nM | 0.2 nM | 200 nM | 36000 nM
3 | Cc1cc(-c2ccc(N3CCOCC3)cc2)cnc1-n1cnn(CC(CN)=C(F)F)c1=O [Example 237, 2-[2-(aminomethyl)-3,3-difluoro-allyl]-4-[3-methyl-5-(4-morpholinophenyl)-2-pyridyl]-1,2,4-triazol-3-one Trifluoroacetate] | > 100000 nM | 0.42 nM | 84000 nM | 6100 nM
4 | Cc1cc(-c2cccc(-c3nc[nH]n3)c2)cnc1-n1cnn(CC(CN)=C(F)F)c1=O [Example 239, 2-[2-(aminomethyl)-3,3-difluoro-allyl]-4-[3-methyl-5-[3-(1H-1,2,4-triazol-3-yl)phenyl]-2-pyridyl]-1,2,4-triazol-3-one trifluoroacetate] | > 100000 nM | 2.7 nM | 14000 nM | 11000 nM
5 | Cc1cc(C#Cc2ccc(N(C)C)nc2)cnc1-n1cnn(CC(CN)=C(F)F)c1=O [Example 241, 2-[2-(aminomethyl)-3,3-difluoro-allyl]-4-[5-[2-[6-(dimethylamino)-3-pyridyl]ethynyl]-3-methyl-2-pyridyl]-1,2,4-triazol-3-one Trifluoroacetate] | > 100000 nM | 1.3 nM | 6300 nM | 25000 nM
6 | Cc1cc(C#Cc2ccc(N3CCOCC3)nc2)cnc1-n1cnn(CC(CN)=C(F)F)c1=O [Example 242, 2-[2-(aminomethyl)-3,3-difluoro-allyl]-4-[3-methyl-5-[2-(6-morpholino-3-pyridyl)ethynyl]-2-pyridyl]-1,2,4-triazol-3-one Trifluoroacetate] | > 100000 nM | 1 nM | 29000 nM | 4200 nM

Continued, values first:

Row | IC50 [1] | IC50 [2] | IC50 [3] | IC50 [4] | Structure (SMILES)
7 | 40400 nM | 0.2 nM | 1950 nM | 3910 nM | CC(=O)c1ccc(-c2cnc(-n3cnn(CC(CN)=C(F)F)c3=O)c(C)c2)s1 [Example 231, 4-[5-(5-acetyl-2-thienyl)-3-methyl-2-pyridyl]-2-[2-(aminomethyl)-3,3-difluoro-allyl]-1,2,4-triazol-3-one Trifluoroacetate]
8 | > 100000 nM | 0.5 nM | 1100 nM | 15000 nM | Cc1cc(-c2cccc(-c3cc[nH]n3)c2)cnc1-n1cnn(CC(CN)=C(F)F)c1=O [Example 232, 2-[2-(aminomethyl)-3,3-difluoro-allyl]-4-[3-methyl-5-[3-(1H-pyrazol-3-yl)phenyl]-2-pyridyl]-1,2,4-triazol-3-one Trifluoroacetate]
9 | > 100000 nM | 0.4 nM | 1800 nM | 7500 nM | Cc1cc(-c2cccc(S(C)(=O)=O)c2)cnc1-n1cnn(CC(CN)=C(F)F)c1=O [Example 234, 2-[2-(aminomethyl)-3,3-difluoro-allyl]-4-[3-methyl-5-(3-methylsulfonylphenyl)-2-pyridyl]-1,2,4-triazol-3-one Trifluoroacetate]
10 | > 100000 nM | 1.4 nM | 840 nM | > 100000 nM | Cc1cc(-c2cccc(N3CCNCC3)c2)cnc1-n1cnn(CC(CN)=C(F)F)c1=O [Example 235, 2-[2-(aminomethyl)-3,3-difluoro-allyl]-4-[3-methyl-5-(3-piperazin-1-ylphenyl)-2-pyridyl]-1,2,4-triazol-3-one Ditrifluoroacetate]
11 | > 100000 nM | 0.8 nM | > 100000 nM | 6700 nM | Cc1cc(-c2ccc(C(=O)N3CCOCC3)cc2)cnc1-n1cnn(CC(CN)=C(F)F)c1=O [Example 236, 2-[2-(aminomethyl)-3,3-difluoro-allyl]-4-[3-methyl-5-[4-(morpholine-4-carbonyl)phenyl]-2-pyridyl]-1,2,4-triazol-3-one Trifluoroacetate]
12 | > 100000 nM | 0.14 nM | 1800 nM | 310 nM | Cc1cc(-c2ccc(S(=O)(=O)N(C)C)cc2)cnc1-n1cnn(CC(CN)=C(F)F)c1=O [Example 238, 4-[6-[1-[2-(aminomethyl)-3,3-difluoro-allyl]-5-oxo-1,2,4-triazol-4-yl]-5-methyl-3-pyridyl]-N,N-dimethyl-benzenesulfonamide trifluoroacetate]
13 | > 100000 nM | 1 nM | 15000 nM | 30000 nM | Cc1cc(C#Cc2cnn(C)c2)cnc1-n1cnn(CC(CN)=C(F)F)c1=O [Example 240, 2-[2-(aminomethyl)-3,3-difluoro-allyl]-4-[3-methyl-5-[2-(1-methylpyrazol-4-yl)ethynyl]-2-pyridyl]-1,2,4-triazol-3-one trifluoroacetate]
